From patent US20070259856A1, “Method for Activating Trpv4 Channel Receptors by Agonists” (priority 2004, published 2007)
Where “and” joins values, the source holds several entries; their conditions need not be identical. Equal entries are not always repeated. Where two headings read alike, the source gives them in different places. Blank lines part the entries; values can stand above or below the compound they belong to.

Columns and labels:
[1] = tested on: bovine articular cartilage explants; test: IL-1 induced aggrecan degradation (GAG release, DMMB) in bovine articular cartilage explants; assay type: cell-based; settings: Bos taurus; IL-1-stimulated bovine cartilage
Text: Articular cartilage explants isolated from newborn calves at slaughter were placed in culture, and aggrecan degradation was initiated through stimulation with IL-1. Since aggrecan degradation in this model is believed to be mediated by aggrecanase, TRPV4 channel receptor agonists that are active in the chondrocyte-based aggrecanase peptide assay (Example 11) may also be effective inhibitors in the cartilage explant assay, presumably by blocking aggrecanase production in these tissues.
At the end of the culture period, conditioned media were assayed for glycosaminoglycan (GAG) levels by colorimetric (DMMB) assay as a measure of aggrecan degradation. In bovine explants, IL-1 induced a profound increase in the amount of GAG released into the media during the 3 day culture. When cartilage was treated with IL-1 in combination with Formula IIc, there was a concentration-dependent reduction in GAG release as shown in Table 5.

[2] = molecular target: T1, TRPV4 channel receptor (Bos taurus, UniProt A0A8F4X677); test: Ca2+ influx in bovine articular chondrocytes (FlexStation); assay type: cell-based
T1 construct: endogenous in cells; host or cells: bovine articular chondrocytes
T1 sequence (A0A8F4X677 1-871): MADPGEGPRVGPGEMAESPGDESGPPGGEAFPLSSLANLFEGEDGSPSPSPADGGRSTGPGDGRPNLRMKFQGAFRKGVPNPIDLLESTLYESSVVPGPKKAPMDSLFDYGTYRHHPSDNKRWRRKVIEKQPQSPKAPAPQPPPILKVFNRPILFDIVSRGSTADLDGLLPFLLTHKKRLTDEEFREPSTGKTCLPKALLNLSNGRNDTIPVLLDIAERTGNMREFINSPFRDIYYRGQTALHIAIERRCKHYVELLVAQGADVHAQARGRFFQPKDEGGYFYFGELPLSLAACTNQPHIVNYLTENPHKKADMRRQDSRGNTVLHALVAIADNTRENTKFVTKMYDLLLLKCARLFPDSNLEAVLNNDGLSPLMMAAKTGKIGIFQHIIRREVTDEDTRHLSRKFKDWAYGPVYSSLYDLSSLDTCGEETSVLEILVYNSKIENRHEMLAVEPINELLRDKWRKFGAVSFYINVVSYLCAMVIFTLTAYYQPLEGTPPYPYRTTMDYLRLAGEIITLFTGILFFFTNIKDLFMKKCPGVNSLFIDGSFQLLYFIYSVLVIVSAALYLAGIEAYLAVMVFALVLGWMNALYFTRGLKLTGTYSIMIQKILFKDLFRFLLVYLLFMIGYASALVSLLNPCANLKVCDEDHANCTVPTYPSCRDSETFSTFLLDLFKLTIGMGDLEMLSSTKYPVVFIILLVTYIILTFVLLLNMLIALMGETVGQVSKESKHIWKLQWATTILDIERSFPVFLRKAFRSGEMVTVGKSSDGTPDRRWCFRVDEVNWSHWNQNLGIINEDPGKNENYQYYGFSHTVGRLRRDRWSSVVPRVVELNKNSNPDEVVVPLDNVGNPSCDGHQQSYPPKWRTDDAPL

[3] = molecular target: TRPV4 channel receptor (Rattus norvegicus, UniProt Q9ERZ8); test: Ca2+ influx in rat articular chondrocytes (FlexStation)
Sequence of TRPV4 channel receptor (Rattus norvegicus, UniProt Q9ERZ8) (Q9ERZ8 whole entry): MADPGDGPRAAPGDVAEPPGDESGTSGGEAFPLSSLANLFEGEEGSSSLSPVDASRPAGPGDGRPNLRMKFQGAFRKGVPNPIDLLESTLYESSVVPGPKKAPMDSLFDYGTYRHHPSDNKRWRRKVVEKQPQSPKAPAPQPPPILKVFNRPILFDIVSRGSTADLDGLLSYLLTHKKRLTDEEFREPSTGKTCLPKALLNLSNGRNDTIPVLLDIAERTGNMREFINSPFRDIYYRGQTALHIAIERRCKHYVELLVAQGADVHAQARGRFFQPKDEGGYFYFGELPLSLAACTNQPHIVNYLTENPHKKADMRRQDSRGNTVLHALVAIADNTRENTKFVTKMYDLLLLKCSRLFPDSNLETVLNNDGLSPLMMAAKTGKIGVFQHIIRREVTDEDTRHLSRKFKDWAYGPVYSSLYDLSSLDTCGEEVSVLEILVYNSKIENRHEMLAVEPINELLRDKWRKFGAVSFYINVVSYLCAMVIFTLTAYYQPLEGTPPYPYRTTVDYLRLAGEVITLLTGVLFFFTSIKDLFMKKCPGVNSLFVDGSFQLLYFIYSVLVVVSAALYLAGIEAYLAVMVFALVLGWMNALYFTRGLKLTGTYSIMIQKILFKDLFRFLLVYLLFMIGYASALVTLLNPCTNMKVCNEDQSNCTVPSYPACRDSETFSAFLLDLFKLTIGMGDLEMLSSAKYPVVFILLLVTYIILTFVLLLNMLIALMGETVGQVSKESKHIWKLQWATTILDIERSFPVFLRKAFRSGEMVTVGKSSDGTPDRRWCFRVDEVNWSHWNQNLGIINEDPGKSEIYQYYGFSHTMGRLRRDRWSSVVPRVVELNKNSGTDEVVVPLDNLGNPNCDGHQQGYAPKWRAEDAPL

[4] = tested on: human cartilage explants; test: Aggrecan degradation (GAG, DMMB) in human cartilage explants; assay type: cell-based; settings: Homo sapiens; estimated; 3-point concentration response
Method: Because the progression of aggrecan degradation in response to IL-1 in human cartilage is slower than in bovine cartilage, culture media was removed and replaced with fresh treatments every 2-3 days for approximately 3 weeks. For each timepoint, GAG levels were measured by DMMB assay, and cumulative data released over the entire 3 week culture period was calculated.
The data represents cumulative aggrecan degradation after 21 days in culture. […] In addition, Formula IId caused a concentration-dependent reduction of IL-1-induced aggrecan degradation. […] The estimated IC50's shown in Table 7 are very similar to those IC50's calculated from IL-1-stimulated bovine cartilage.

[5] = molecular target: T2, TRPV4 channel receptor (Homo sapiens, UniProt Q9HBA0); test: Ca2+ influx in human articular chondrocytes (FlexStation)
T2 sequence (Q9HBA0 whole entry): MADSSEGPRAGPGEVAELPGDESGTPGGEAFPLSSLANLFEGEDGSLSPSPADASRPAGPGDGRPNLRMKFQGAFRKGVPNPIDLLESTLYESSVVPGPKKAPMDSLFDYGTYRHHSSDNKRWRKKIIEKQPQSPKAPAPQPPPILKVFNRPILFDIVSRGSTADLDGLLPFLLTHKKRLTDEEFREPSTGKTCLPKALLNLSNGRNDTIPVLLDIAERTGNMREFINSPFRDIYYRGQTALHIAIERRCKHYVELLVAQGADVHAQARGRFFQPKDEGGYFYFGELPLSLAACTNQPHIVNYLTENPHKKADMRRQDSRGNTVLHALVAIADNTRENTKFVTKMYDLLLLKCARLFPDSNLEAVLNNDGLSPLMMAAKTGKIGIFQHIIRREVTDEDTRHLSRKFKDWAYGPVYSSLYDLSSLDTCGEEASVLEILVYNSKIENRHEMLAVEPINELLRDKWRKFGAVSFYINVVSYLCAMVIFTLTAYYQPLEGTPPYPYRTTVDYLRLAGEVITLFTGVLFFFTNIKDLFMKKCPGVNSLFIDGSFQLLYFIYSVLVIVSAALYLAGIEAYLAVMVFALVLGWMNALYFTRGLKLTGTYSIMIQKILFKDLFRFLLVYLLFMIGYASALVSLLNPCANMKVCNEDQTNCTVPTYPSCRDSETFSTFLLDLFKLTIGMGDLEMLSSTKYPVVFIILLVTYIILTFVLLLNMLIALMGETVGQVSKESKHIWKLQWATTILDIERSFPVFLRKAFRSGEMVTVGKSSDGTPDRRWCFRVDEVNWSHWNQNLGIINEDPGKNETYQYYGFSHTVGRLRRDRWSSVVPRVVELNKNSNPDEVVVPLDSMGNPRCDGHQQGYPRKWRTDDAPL

[6] = tested on: aggrecanase; test: IL-1 induced aggrecanase production, chondrocyte-based aggrecanase peptide cleavage assay; assay type: cell-based, bovine
Text: Aggrecanases (ADAMTSs), in conjunction with MMPs, degrade aggrecan, one of the major matrix components in articular cartilage. […] 2003; 48(1): 119-133].

[7] = molecular target: T2, TRPV4 channel receptor; test: FLIPR assay; assay type: cell-based
[8] = molecular target: T3, TRPV4 channel receptor endogenously expressed by chondrocytes (Bos taurus, UniProt A0A8F4X677); test: Intracellular calcium (FLIPR) in bovine articular chondrocytes; assay type: cell-based
T3 construct: endogenous in cells; host or cells: bovine articular chondrocytes
T3 sequence (A0A8F4X677 1-871): as the sequence (A0A8F4X677 1-871) above
Method: (§1) TRPV4 channel receptor cDNA was inserted into the expression vector pcDNA3.1 V5-His (Invitrogen, Carlsbad, Calif.). Wildtype HEK293 cells, or HEK293 cells transfected with the human TRPV4 channel receptor: pcDNA3.1 V5-His construct, or mock transfected cells, or bovine chondrocytes, were seeded into 96-well microtitre plates at 25,000 cells/well and cultured overnight. The cells were then incubated with 4 μM Fluo-3 (Fluo-3: Molecular Probes (Eugene, Oreg.)) for 2 hours at room temperature in the dark. Dye loaded cells were washed 4× with Tyrodes buffer: (NaCl, 145 mM; KCl, 2.5 mM; Hepes, 10 mM; Glucose, 10 mM; MgCl2, 1.2 mM; CaCl2, 1.5 mM), which also contained 0.2% BSA but not probenecid. Agonists and antagonists were also prepared in Tyrodes buffer. Cells were preincubated for 30 minutes with antagonist or buffer. Agonist addition and measurement of cytoplasmic calcium concentration was performed in the FLIPR (Smart, et al., (2000) Br. J. Pharmacol. 129, 227-230).
The response was dependent upon extracellular calcium ions and was blocked by the channel blocker, ruthenium red.

[9] = molecular target: T2, TRPV4 channel receptor; test: Intracellular calcium (FLIPR, Fluo-3) in HEK293 cells transfected with human TRPV4 channel receptor; assay type: cell-based; parameters: V5-His (from the vector's name only); expressed in transfected cells; host or cells: HEK293
Method: as §1

[10] = tested on: wild type HEK293 cells; test: Intracellular calcium (FLIPR) in wild type HEK293 cells; assay type: cell-based; parameters: key to pEC50 wild type: IA = inactive
Method: as §1

[11] = tested on: cells transfected with empty vector; test: Intracellular calcium (FLIPR) in HEK293 cells transfected with empty vector; assay type: cell-based; parameters: key to pEC50 empty vector: IA = inactive
Method: as §1

[12] = tested on: TRPV4 channel receptors; test: Activation of TRPV4 channel receptors in cartilage explants; assay type: cell-based, human, rat, rabbit, mouse, canine, monkey, or bovine; settings: compared with chondrocytes extracted from a cartilage matrix
[13] = molecular target: TRPVR1 (Homo sapiens, UniProt Q8NER1); assay type: cell-based; parameters: key to pEC50 TRPVR1: IA = inactive
Sequence of TRPVR1 (Q8NER1 whole entry): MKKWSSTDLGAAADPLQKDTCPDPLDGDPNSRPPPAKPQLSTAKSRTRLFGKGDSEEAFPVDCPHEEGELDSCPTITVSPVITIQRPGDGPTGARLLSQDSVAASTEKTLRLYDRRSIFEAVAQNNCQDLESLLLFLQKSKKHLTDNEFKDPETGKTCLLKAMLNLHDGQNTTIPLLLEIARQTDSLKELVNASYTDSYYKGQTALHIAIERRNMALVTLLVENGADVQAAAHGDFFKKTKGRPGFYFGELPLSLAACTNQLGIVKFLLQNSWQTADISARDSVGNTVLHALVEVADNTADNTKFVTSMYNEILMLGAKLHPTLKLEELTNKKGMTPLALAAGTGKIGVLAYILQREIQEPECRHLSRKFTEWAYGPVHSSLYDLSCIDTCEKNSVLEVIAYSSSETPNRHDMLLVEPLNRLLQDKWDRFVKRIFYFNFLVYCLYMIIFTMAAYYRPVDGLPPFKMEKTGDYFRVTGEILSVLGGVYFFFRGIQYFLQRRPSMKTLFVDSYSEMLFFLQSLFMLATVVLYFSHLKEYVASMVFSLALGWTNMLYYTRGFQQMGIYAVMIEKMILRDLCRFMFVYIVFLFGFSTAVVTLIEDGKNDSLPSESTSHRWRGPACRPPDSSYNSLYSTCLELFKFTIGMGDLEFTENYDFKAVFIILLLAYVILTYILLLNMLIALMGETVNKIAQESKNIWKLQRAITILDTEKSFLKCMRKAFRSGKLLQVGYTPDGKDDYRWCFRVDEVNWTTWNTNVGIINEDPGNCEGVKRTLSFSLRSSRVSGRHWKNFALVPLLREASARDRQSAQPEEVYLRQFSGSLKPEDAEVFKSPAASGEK

[14] = intracellular calcium, mean ± s.e.mean, n = 3-5

BAC % eff ([2]; bovine articular chondrocytes): (104%)
EC50 ([2]; bovine articular chondrocytes, read-out: BAC EC50): 260 nM
Ca Influx - FLEX (bovine) % effic. ([2]; bovine chondrocytes): 70%
EC50 ([2]; bovine chondrocytes, read-out: Ca Influx - FLEX (bovine) EC50): 290 nM
EC50 ([3]; RAC EC50, rat articular chondrocytes, N = 2): 370 nM and 700 nM
RAC % eff ([3]; rat articular chondrocytes, N = 2): 99% and 104%
EC50 ([5]; Ca Influx - FLEX (human) EC50, human chondrocytes): 280 nM
EC50 ([5]; HAC EC50, human articular chondrocytes, N = 2): 240 nM and 210 nM
HAC % eff ([5]; human articular chondrocytes, N = 2): 124% and 130%
Ca Influx - FLEX (human) % effic. ([5]; human chondrocytes): 78%
IC50 [6]: 350 nM
IC50 ([6]; Bos taurus): 400 nM
EC50 [7]: 700 nM
Compound: CC(C)C[C@H](NC(=O)c1cc2ccccc2s1)C(=O)NCCCN(C)S(=O)(=O)c1ccccc1C#N [Formula IIIb, N-{(1S)-1-[({3-[[(cyanophenyl)sulfonyl](methyl)amino]propyl}amino)carbonyl]-3-methylbutyl}-1-benzothiophene-2-carboxamide]
IC50 [1]: 400 nM
IC50 [4]: 500 nM

Compound: N.N.N.N.N.N.N.N.N.N.N.N.N.N.[Cl-].[Cl-].[Cl-].[Cl-].[Cl-].[Cl-].[O-2].[O-2].[Ru+3].[Ru+3].[Ru+4] [Ruthenium Red, reference compound]
block of the response to 4α-PDD [8]: blocked
reversal of the effects of 4α-PDD on Ca2+ influx ([2]; bovine chondrocytes): reduce Ca^2+ influx down to baseline levels
reversal of the effects of 4α-PDD on Ca2+ influx ([3]; rat chondrocytes): reduce Ca^2+ influx down to baseline levels
reversal of the effects of 4α-PDD on Ca2+ influx ([5]; human chondrocytes): reduce Ca^2+ influx down to baseline levels

Compound: CCCCCCCCCC(=O)O[C@@H]1[C@@H](C)[C@@]2(O)[C@@H](C=C(CO)C[C@@]3(O)C(=O)C(C)=C[C@@H]23)[C@@H]2C(C)(C)[C@]12OC(=O)CCCCCCCCC [Formula 4αPDD, 4α-phorbol-12,13-didecanoate]
intracellular calcium in HEK293-TRPV4 channel receptor cells [9]: increased intracellular calcium
pEC50 TRPVR4 [9, 14]: 5.73 ± 0.06
effect on intracellular calcium in wild type HEK293 cells [10]: without effect
pEC50 wild type [10, 14]: IA
Ca2+ influx ([2]; bovine chondrocytes): stimulated Ca^2+ influx
effect on intracellular calcium in cells transfected with empty vector [11]: without effect
pEC50 empty vector [11, 14]: IA
Ca2+ influx ([3]; rat chondrocytes): stimulated Ca^2+ influx
potency and efficacy in activating TRPV4 channel receptors in cartilage explants [12]: greatly diminished
activation of VR1 [13]: did not activate VR1
pEC50 TRPVR1 [13, 14]: IA
Ca2+ influx ([5]; human chondrocytes): stimulated Ca^2+ influx
